This passage reports MIC results from US11014934B2, “Antiseptic drug” (AO “TATKHIMFARMPREPARATY”, priority 2017, dated 2021).

Like-named read-outs stand apart in the source and are kept apart here.

Test in all cases: MIC, serial dilutions in Müller-Hinton broth
Type in all cases: cell-based

The test system of one experiment is Acinetobacter spp. 1. How it is done: (§1) A comparative assessment of the spectrum of antibacterial action was carried out on archival and clinical strains of gram-positive and gram-negative microorganisms in accordance with the [Opredeleniye chuvstvitel'nosti mikroorganizmov k antibakterial'nym preparatam (Metodicheskiye ukazaniya MUK 4.2.1890-04). Utverzhdeny i vvedeny v deystviye Glavnym gosudarstvennym sanitarnym vrachom Rossiyskoy Federatsii G. G. Onishchenko 04.03.2004 g. Determination of the sensitivity of microorganisms to antibacterial drugs (Guidelines MUK 4.2.1890-04). Approved and put into effect by the Chief State Sanitary Doctor of the Russian Federation G. G. Onishchenko on 4 Mar. 2004].
(§2) The value of the minimum inhibitory concentration (MIC) was determined by the method of serial dilutions on Müller-Hinton broth using 96-well sterile plates. Two-fold dilutions of the test substances in a nutrient medium were prepared. The final concentrations were 1-128 ug/ml. The growth of cultures was assessed visually, comparing the growth of microorganisms in the presence of test compounds with the growth of culture without them. […] The first lowest concentration of the studied substance (from a series of consecutive dilutions), where bacterial growth is not visually determined, is considered to be the minimum inhibitory concentration (MIC). MIC was determined by the method of serial dilutions in broth with increment=2, so the differences of neighboring dilutions are not considered to be significant. In each experience there is a positive (broth with growing culture) and a negative (broth without growing culture) control.
(§3) To determine the MIC, 10 μl of culture medium was taken from those wells in which growth was not observed, and inoculation was performed on a dense Müller-Hinton broth. For the preparation of the inoculum, a pure, daily culture of gram-positive and gram-negative microorganisms grown on a dense nutrient medium was used. Nutrient medium is Müller-Hinton broth, which was prepared from dry media (Müller-Hinton broth, Acumedia, Baltimore), cultivation was carried out on agarized Müller-Hinton broth, including an additional 2% agar. The media were autoclaved at 121° C. for 15 minutes. In a sterile isotonic solution of sodium chloride, a suspension of microorganisms was prepared, adjusting the inoculum density to 0.5 according to the McFarland standard (1.5·10^8 CFU/ml). Then, the resulting inoculum was diluted to a concentration of 10^7 CFU/ml with Müller-Hinton broth. The inoculum was used within 15 minutes after preparation; the purity of the bacterial strains was monitored before each experiment.
(§4) 100 μl of Müller-Hinton broth was added to the wells of each plate; The tested substance was introduced into the first well at a concentration of 128 μg/ml in a volume of 100 μl and its concentration was adjusted to 0.5 μg/ml by consecutive two-fold dilution. Then, the prepared inoculum (100 μI) was added to each well, thereby diluting twice the concentration of the studied compounds. […] In addition, the purity of nutrient media and solvents was monitored. The plates were incubated in a thermostat at 37° C. for 24 hours. The growth of cultures was assessed visually, comparing the growth of microorganisms in the presence of test compounds with the growth of culture without them.
(§5) For the MIC was taken the minimum concentration of the studied compounds, providing complete suppression of the visible growth of the studied strains of microorganisms. The maximum value obtained in three independent experiments was taken as the MIC of the compound.

The next experiment relates to B. subtilis 168. On the procedure:
as §1, §2, §3, §4, §5

In a further experiment the test system is E. coli 1440. How it is done: as §1, §2, §3, §4, §5
A further experiment has as its system E. coli MG 1655. On the procedure: as §1, §2, §3, §4, §5
In a further experiment the test system is E. faecalis 3051. How it is done: as §1, §2, §3, §4, §5
In another experiment the test system is E. faecium 24. How it is done:
as §1, §2, §3, §4, §5

Another experiment relates to E. faecium 30. On the procedure:
as §1, §2, §3, §4, §5

Another experiment relates to E. faecium 32. How it is done: as §1, §2, §3, §4, §5
For a further experiment, the system named is E. faecium 4403. On the procedure:
as §1, §2, §3, §4, §5

The next experiment relates to Kl. pneumoniae 1435 PR. How it is done: as §1, §2, §3, §4, §5
The subject of a further experiment is Kl. pneumoniae 1812 PR. On the procedure:
as §1, §2, §3, §4, §5

The test system of the next experiment is Klebsiella spp. 10. On the procedure:
as §1, §2, §3, §4, §5

The subject of another experiment is Moraxella sp. 764. On the procedure:
as §1, §2, §3, §4, §5

For the next experiment, the system named is Ps. aeruginosa 1959. On the procedure:
as §1, §2, §3, §4, §5

Another experiment has as its system Ps. aeruginosa 2869. On the procedure:
as §1, §2, §3, §4, §5

In a further experiment the test system is Pseudomonas spp. 5. On the procedure:
as §1, §2, §3, §4, §5

Another experiment relates to Pseudomonas spp.6. The conditions noted are these: inoculum 10^7 CFU/ml. How it is done:
as §1, §2, §3, §4, §5

In another experiment the test system is S. aureus 1131 MRSA. On the procedure:
as §1, §2, §3, §4, §5

The test system of the next experiment is S. aureus 1134 MRSA. How it is done:
as §1, §2, §3, §4, §5

For another experiment, the system named is S. aureus 1163 MRSA. On the procedure: as §1, §2, §3, §4, §5
The next experiment has as its system S. aureus 18. On the procedure:
as §1, §2, §3, §4, §5

The subject of the next experiment is S. aureus ATCC 209p. How it is done: as §1, §2, §3, §4, §5

The term MIC denotes the lowest concentration found to suppress growth. As to `CCCCCCCCCCCC[N+](C)(C)Cc1cnc(C[N+](C)(C)CCCCCCCCCCCC)c2c1COC(CC)O2` (stereo not drawn) [Compound I, 5,8-(Bis(methylene (N, N-dimethyl-N-dodecylammonium))-2-ethyl-4H-[1,3]dioxino [4,5-c]pyridiniumdichloride], the MIC in the experiment with Acinetobacter spp. 1 (Acinetobacter spp. 1, inoculum 10^7 CFU/ml, read-out: MIC) amounted to 16 µg/mL; in the experiment on B. subtilis 168 (Bacillus subtilis, B. subtilis 168, inoculum 10^7 CFU/ml, read-out: MIC) it was 2 µg/mL; in the experiment with E. coli 1440 (Escherichia coli, E. coli 1440, inoculum 10^7 CFU/ml, read-out: MIC), 32 µg/mL; in the experiment with E. coli MG 1655 (Escherichia coli, MG1655, E. coli MG 1655, inoculum 10^7 CFU/ml, read-out: MIC), 2 µg/mL; in the experiment with E. faecalis 3051 (Enterococcus faecalis, E. faecalis 3051, inoculum 10^7 CFU/ml, read-out: MIC), 4 µg/mL; in the experiment with E. faecium 24 (Enterococcus faecium, E. faecium 24, inoculum 10^7 CFU/ml, read-out: MIC) it was 0.03 µg/mL. Besides, the MIC amounted to 0.03 µg/mL in the experiment with E. faecium 30 (Enterococcus faecium, E. faecium 30, inoculum 10^7 CFU/ml, read-out: MIC); 0.03 µg/mL in the experiment on E. faecium 32 (Enterococcus faecium, E. faecium 32, inoculum 10^7 CFU/ml, read-out: MIC); 0.03 µg/mL in the experiment on E. faecium 4403 (Enterococcus faecium, E. faecium 4403, inoculum 10^7 CFU/ml, read-out: MIC); 32 µg/mL in the experiment with Kl. pneumoniae 1435 PR (Klebsiella pneumoniae, Kl. pneumoniae 1435 PR, inoculum 10^7 CFU/ml, read-out: MIC); 64 µg/mL in the experiment with Kl. pneumoniae 1812 PR (Klebsiella pneumoniae, Kl. pneumoniae 1812 PR, inoculum 10^7 CFU/ml, read-out: MIC); 8 µg/mL in the experiment on Klebsiella spp. 10 (Klebsiella spp. 10, inoculum 10^7 CFU/ml, read-out: MIC). The MIC was 8 µg/mL in the experiment with Moraxella sp. 764 (Moraxella sp. 764, inoculum 10^7 CFU/ml, read-out: MIC); 32 µg/mL in the experiment with Ps. aeruginosa 1959 (Pseudomonas aeruginosa, Ps. aeruginosa 1959, inoculum 10^7 CFU/ml, read-out: MIC); 32 µg/mL with Ps. aeruginosa 2869 (Pseudomonas aeruginosa, Ps. aeruginosa 2869, inoculum 10^7 CFU/ml, read-out: MIC); 8 µg/mL in the experiment with Pseudomonas spp. 5 (Pseudomonas spp. 5, inoculum 10^7 CFU/ml, read-out: MIC); 16 µg/mL in the experiment on Pseudomonas spp.6 (read-out: MIC); 2 µg/mL in the experiment with S. aureus 1131 MRSA (Staphylococcus aureus, S. aureus 1131 MRSA, inoculum 10^7 CFU/ml, read-out: MIC). In addition, the MIC was 2 µg/mL in the experiment with S. aureus 1134 MRSA (Staphylococcus aureus, S. aureus 1134 MRSA, inoculum 10^7 CFU/ml, read-out: MIC); 4 µg/mL in the experiment with S. aureus 1163 MRSA (Staphylococcus aureus, S. aureus 1163 MRSA, inoculum 10^7 CFU/ml, read-out: MIC); 4 µg/mL with S. aureus 18 (Staphylococcus aureus, S. aureus 18, inoculum 10^7 CFU/ml, read-out: MIC); 2 µg/mL with S. aureus ATCC 209p (Staphylococcus aureus, ATCC209P, S. aureus ATCC 209p, inoculum 10^7 CFU/ml, read-out: MIC).
Take `CCCCCCCCCCCCCC(=O)NCCC[N+](C)(C)Cc1ccccc1.O.[Cl-]` [Miramistin, benzyldimethyl [3-(myristoylamino)propyl]-ammonium chloride monohydrate]: the minimal inhibitory concentration (MIC) is 64 µg/mL against Acinetobacter spp. 1 (Acinetobacter, SPP.1); 2 µg/mL with B. subtilis 168 (Bacillus subtilis, 168); 64 µg/mL against E. coli 1440 (Escherichia coli, 1440); 8 µg/mL with E. coli MG 1655 (Escherichia coli, MG1655); 2 µg/mL against E. faecalis 3051 (Enterococcus faecalis, 3051); 16 µg/mL in the experiment with E. faecium 24 (Enterococcus faecium, 24). The minimal inhibitory concentration (MIC) with E. faecium 30 (Enterococcus faecium, 30) is under 0.5 µg/mL; against E. faecium 32 (Enterococcus faecium, 32) it was under 0.5 µg/mL; in the experiment with E. faecium 4403 (Enterococcus faecium, 4403), 64 µg/mL; in the experiment with Kl. pneumoniae 1435 PR (Klebsiella pneumoniae, 1435PR), 64 µg/mL; with Kl. pneumoniae 1812 PR (Klebsiella pneumoniae, 1812PR) it was 64 µg/mL; with Klebsiella spp. 10 (Klebsiella, SPP.10) it was 64 µg/mL. Moreover, the MIC with Moraxella sp. 764 (Moraxella, SP.764) was 64 µg/mL; against Ps. aeruginosa 1959 (Pseudomonas aeruginosa, 1959), 64 µg/mL; in the experiment with Ps. aeruginosa 2869 (Pseudomonas aeruginosa, 2869), 64 µg/mL; in the experiment with Pseudomonas spp. 5 (Pseudomonas, SPP.5), over 64 µg/mL; with Pseudomonas spp.6 (read-out: MIC) it was over 64 µg/mL; against S. aureus 1131 MRSA (Staphylococcus aureus, MRSA), 4 µg/mL. Also, the minimum inhibitory concentration (MIC) with S. aureus 1134 MRSA (Staphylococcus aureus, MRSA) came to 8 µg/mL; against S. aureus 1163 MRSA (Staphylococcus aureus, MRSA), 4 µg/mL; in the experiment with S. aureus 18 (Staphylococcus aureus, 18), 16 µg/mL; with S. aureus ATCC 209p (Staphylococcus aureus, ATCC209P), 8 µg/mL.
Regarding “alkyldimethyl(phenylmethyl) ammonium chloride [Benzalconium chloride]”, the MIC was over 64 µg/mL with Acinetobacter spp. 1 (Acinetobacter spp. 1, inoculum 10^7 CFU/ml); 0.5 µg/mL against B. subtilis 168 (B. subtilis 168, inoculum 10^7 CFU/ml); 32 µg/mL in the experiment with E. coli 1440 (E. coli 1440, inoculum 10^7 CFU/ml); 2 µg/mL with E. coli MG 1655 (E. coli MG 1655, inoculum 10^7 CFU/ml); 2 µg/mL against E. faecalis 3051 (E. faecalis 3051, inoculum 10^7 CFU/ml); under 0.5 µg/mL in the experiment with E. faecium 24 (E. faecium 24, inoculum 10^7 CFU/ml). For the same compound, the minimum inhibitory concentration (MIC) is under 0.5 µg/mL with E. faecium 30 (E. faecium 30, inoculum 10^7 CFU/ml); under 0.5 µg/mL in the experiment on E. faecium 32 (E. faecium 32, inoculum 10^7 CFU/ml); 2 µg/mL in the experiment with E. faecium 4403 (E. faecium 4403, inoculum 10^7 CFU/ml); 32 µg/mL against Kl. pneumoniae 1435 PR (Kl. pneumoniae 1435 PR, inoculum 10^7 CFU/ml); 64 µg/mL in the experiment on Kl. pneumoniae 1812 PR (Kl. pneumoniae 1812 PR, inoculum 10^7 CFU/ml); 1 µg/mL against Klebsiella spp. 10 (Klebsiella spp. 10, inoculum 10^7 CFU/ml). In addition, the MIC with Moraxella sp. 764 (Moraxella sp. 764, inoculum 10^7 CFU/ml) was 4 µg/mL; in the experiment with Ps. aeruginosa 1959 (Ps. aeruginosa 1959, inoculum 10^7 CFU/ml) it was over 64 µg/mL; in the experiment with Ps. aeruginosa 2869 (Ps. aeruginosa 2869, inoculum 10^7 CFU/ml) it was 64 µg/mL; in the experiment with Pseudomonas spp. 5 (Pseudomonas spp. 5, inoculum 10^7 CFU/ml), 32 µg/mL; against Pseudomonas spp.6, 16 µg/mL; against S. aureus 1131 MRSA (S. aureus 1131 MRSA, inoculum 10^7 CFU/ml), 2 µg/mL. For the same compound, the MIC against S. aureus 1134 MRSA (S. aureus 1134 MRSA, inoculum 10^7 CFU/ml) was 2 µg/mL; in the experiment on S. aureus 1163 MRSA (S. aureus 1163 MRSA, inoculum 10^7 CFU/ml) it was 4 µg/mL; in the experiment with S. aureus 18 (S. aureus 18, inoculum 10^7 CFU/ml) it was under 0.5 µg/mL; in the experiment on S. aureus ATCC 209p (S. aureus ATCC 209p, inoculum 10^7 CFU/ml), 4 µg/mL.
